In one assay the target is PI3Kα (Homo sapiens, UniProt P42336). Briefly: Kinase panel assay (Z'-LYTE, SelectScreen), PI3Kα. In kind it is biochemical. The settings on record: 1 μM compound, 100 μM ATP; among kinases inhibited by more than 50%. On the procedure:
Kinase panel assays were performed using the FRET-based Z’- LYTE enzymatic kinase assay system (Life Technologies, Carlsbad, CA), which was carried out using the SelectScreen Kinase Profiling Service (Life Technologies). The standard reaction contained 2 μM peptide substrate, 100 μM ATP, 50 mM HEPES (pH 7.5), 0.01% Brij-35, 10 mM MgCl2, 1 mM EGTA, and each kinase. Cpd-1, Cpd-2, and Cpd-3 at two point concentration (100 and 1000 nM) with duplicate data points (n = 2) were assayed following the detailed procedures outlined in the SelectScreen. The full assay protocol and conditions can be obtained at www.lifetechnologies.com. Percent inhibition represents a ratio of phosphorylated product formed in the presence of the compound compared with phosphorylated product formed in reactions containing 1% DMSO. Inhibition data indicates the mean value of kinase inhibition from duplicate data.

Assay [1] concerns S6K, EIF3D, and EGFR in MDA-MB-468 cells. Briefly: Immunoblot of S6K, EIF3D and EGFR protein levels. Conditions: MDA-MB-468, 24 h. In kind it is cell-based, human. On the procedure:
(§1) Cells were lysed in radioimmunoprecipitation assay buffer containing 50 mM Tris-HCl (pH 7.6), 150 mM NaCl, 1% Triton X-100, and protease inhibitor cocktail tablets (Roche). After removal of the insoluble matter by centrifugation at 15,000 rpm for 15 min, the protein concentrations of the supernatants were determined using a BCA Protein Assay Kit (Pierce Biotechnology, Rockford, IL). The lysates were directly combined with one-quarter volume of 5× sample buffer [25 mmol/L Tris-HCl pH 6.8, 10% glycerol, 0.8% SDS, and 0.004% bromophenol blue] and boiled at 100°C for 5 min. The samples were subjected to 5–20% gradient SDS-polyacrylamide gel electrophoresis, and the separated proteins were electrophoretically transferred to polyvinylidene difluoride membranes using an I-blot System (Invitrogen). The membranes were incubated with primary antibodies and visualized using enhanced chemiluminescence reagents (GE Healthcare). The primary antibodies were as follows: anti-phospho-SR (1H4), anti-SR (Invitrogen), anti-EGFR, anti-EIF3D, anti-GAPDH (Santa Cruz Biotechnology, Santa Cruz, CA), anti-S6K and anti-PARP (Cell Signaling Technology, Danvers, MA).
In general terms: In western blotting, separated proteins are transferred to a membrane and probed.

The target of another assay is T1, SRPK3 (Homo sapiens, UniProt Q9UPE1).
T1 construct: purchased Millipore
Briefly: In vitro kinase assay (ADP-Glo), SRPK3. The settings on record: 5 µM ATP. The assay is classed as biochemical. How it is done: The ATP concentration for each assay was adjusted to the Km for each kinase. Kinase assays for SRPK1–3 and CLK1 were performed using the ADP-Glo™ assay (Promega, Madison, WI). The kinase buffer contained 25 mM HEPES (pH 7.5), 10 mM magnesium acetate, 1 mM DTT, 0.01% BSA, and 0.01% Tween-20. The reaction mixtures contained 50 ng/mL SRPK1, 100 ng/mL SRPK2 or SRPK3, or 300 ng/mL CLK1 and 3 μM substrate peptide [GRSRSRSRSRSRSRSR] (Thermo Scientific). After incubating the enzyme, peptide, and compounds for 10 min, kinase reactions were initiated by adding ATP to a final concentration of 5 µM, followed by incubation for 30 min (15 min for SRPK1). The kinase reactions were terminated by adding ADP-Glo™ reagent (Promega). ADP was detected using a kinase detection reagent (Promega). The kinase activity of CLK2 was measured using the LANCE® Ultra assay (Perkin-Elmer, Waltham, MA) with ADP-Glo assay buffer. […] The enzyme reactions were terminated by adding 30 mM EDTA, and phosphorylated ULight-MBP peptides were detected using a europium-labeled anti-phospho-MBP antibody diluted with detection buffer (Perkin-Elmer). The plates were read using an EnVision 2102 multilabel reader (Perkin-Elmer). We defined the absorbance of the reaction without enzyme as 100% inhibitory activity and that of the complete reaction mixture as 0% inhibitory activity. […]
(In general: In ADP-Glo the light output rises with the ADP produced.)

The subject of assay [2] is phospho-SR proteins in MDA-MB-468 cells. Briefly: Immunoblot of phospho-SR proteins. The settings on record: MDA-MB-468, 3 h, anti-pan-phospho-SR antibody. In kind it is cell-based, human. On the procedure: as §1

Each structure is given as a SMILES string.

T1 sequence (Q9UPE1 whole entry): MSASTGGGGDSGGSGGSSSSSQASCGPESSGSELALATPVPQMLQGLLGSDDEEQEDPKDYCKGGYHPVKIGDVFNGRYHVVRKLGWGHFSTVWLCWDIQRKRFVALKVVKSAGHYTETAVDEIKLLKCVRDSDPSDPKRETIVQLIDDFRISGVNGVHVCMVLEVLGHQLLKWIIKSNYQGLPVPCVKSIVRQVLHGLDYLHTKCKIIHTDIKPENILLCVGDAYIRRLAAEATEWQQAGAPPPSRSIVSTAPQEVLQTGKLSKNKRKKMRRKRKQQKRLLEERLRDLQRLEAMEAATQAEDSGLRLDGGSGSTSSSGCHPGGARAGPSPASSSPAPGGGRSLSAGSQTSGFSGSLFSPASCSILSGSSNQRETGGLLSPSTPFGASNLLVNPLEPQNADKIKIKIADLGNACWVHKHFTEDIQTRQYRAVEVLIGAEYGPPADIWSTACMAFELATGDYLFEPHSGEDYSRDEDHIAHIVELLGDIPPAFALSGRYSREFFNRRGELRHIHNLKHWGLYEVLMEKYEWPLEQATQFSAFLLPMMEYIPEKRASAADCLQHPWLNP
Sequence of PI3Kα (P42336 whole entry): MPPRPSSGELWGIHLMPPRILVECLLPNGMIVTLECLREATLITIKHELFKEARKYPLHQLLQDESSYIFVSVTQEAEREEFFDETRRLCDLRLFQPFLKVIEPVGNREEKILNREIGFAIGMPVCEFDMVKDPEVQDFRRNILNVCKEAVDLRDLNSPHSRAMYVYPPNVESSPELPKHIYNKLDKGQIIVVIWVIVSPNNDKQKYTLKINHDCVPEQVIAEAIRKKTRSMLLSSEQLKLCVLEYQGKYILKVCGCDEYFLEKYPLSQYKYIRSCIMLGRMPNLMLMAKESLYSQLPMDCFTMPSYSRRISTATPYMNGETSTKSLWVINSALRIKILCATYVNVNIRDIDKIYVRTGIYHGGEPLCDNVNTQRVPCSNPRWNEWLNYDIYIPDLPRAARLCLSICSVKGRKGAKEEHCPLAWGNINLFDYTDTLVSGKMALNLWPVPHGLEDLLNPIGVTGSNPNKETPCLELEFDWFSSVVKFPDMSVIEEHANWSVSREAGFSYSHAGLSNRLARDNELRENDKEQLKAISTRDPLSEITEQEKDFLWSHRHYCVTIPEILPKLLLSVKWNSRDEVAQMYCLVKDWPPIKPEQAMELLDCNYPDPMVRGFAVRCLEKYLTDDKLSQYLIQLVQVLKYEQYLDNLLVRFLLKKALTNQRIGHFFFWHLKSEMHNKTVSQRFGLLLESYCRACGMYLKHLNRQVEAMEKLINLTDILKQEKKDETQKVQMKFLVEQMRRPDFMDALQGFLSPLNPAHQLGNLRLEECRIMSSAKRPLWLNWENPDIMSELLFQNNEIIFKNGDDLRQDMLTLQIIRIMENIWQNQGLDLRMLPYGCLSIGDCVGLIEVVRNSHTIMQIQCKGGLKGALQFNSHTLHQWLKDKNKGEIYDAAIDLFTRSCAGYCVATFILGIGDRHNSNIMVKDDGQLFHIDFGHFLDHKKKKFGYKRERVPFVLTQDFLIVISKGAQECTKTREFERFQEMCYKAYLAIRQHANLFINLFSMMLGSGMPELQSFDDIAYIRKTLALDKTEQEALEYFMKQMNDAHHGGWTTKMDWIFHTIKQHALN
Sequence of PI3Kα (P27986 whole entry partner): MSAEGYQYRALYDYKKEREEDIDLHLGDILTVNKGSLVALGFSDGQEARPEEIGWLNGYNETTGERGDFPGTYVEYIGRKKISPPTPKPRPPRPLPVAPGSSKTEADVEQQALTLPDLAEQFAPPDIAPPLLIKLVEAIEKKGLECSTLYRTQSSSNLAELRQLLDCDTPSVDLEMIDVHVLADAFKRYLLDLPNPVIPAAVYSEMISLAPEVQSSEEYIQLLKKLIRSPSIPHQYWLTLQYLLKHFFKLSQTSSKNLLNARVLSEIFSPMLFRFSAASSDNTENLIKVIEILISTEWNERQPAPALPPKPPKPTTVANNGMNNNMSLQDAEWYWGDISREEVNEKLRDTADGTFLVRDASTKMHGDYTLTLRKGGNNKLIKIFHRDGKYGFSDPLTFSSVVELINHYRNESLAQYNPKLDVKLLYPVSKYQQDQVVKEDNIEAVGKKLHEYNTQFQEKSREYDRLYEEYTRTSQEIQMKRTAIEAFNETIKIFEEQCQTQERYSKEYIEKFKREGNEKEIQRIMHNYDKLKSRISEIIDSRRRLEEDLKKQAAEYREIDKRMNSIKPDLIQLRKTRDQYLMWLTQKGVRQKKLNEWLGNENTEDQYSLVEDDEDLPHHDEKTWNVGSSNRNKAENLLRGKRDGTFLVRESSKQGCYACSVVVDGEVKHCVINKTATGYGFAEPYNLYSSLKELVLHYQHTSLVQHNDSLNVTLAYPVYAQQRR

As a reminder, the IC50 is the concentration at which inhibition is half-maximal. A low value points to greater potency in that assay. `CC(C)(C)c1ccc(C(=O)Nc2cn3cc(-c4cn[nH]c4)ccc3n2)cn1` [Cpd-2, 6-tert-butyl-N-(6-(1H-pyrazol-4-yl)imidazo[1,2-a]pyridin-2-yl)nicotinamide]: the “inhibition of PI3Kα in kinase panel” value on PI3Kα is “moderately inhibited”. Also, the “protein levels of S6K, EIF3D, and EGFR” value in assay [1] is “reduced the protein levels of S6K, EIF3D, and EGFR in a concentration-dependent manner”. Also, 230 nM corresponded to half-maximal inhibition at SRPK3 (IC50). In assay [2], the “Phospho-SRSF1 (SF2) level” value is “decreased” and the “phosphorylation levels of SRSF4 (SRp75)” value is given as “at lower concentrations than Cpd-1”.
For `CC(C)(CO)c1ccc(C(=O)Nc2cn3cc(-c4cn[nH]c4)ccc3n2)cc1` [Cpd-3, 4-(1-hydroxy-2-methylpropan-2-yl)-N-(6-(1H-pyrazol-4-yl)imidazo[1,2-a]pyridin-2-yl)benzamide], the concentration for half-maximal inhibition (IC50) on SRPK3 is 260 nM. Also, in assay [2], the “Phospho-SRSF1 (SF2) level” value is reported as “decreased” and the “phosphorylation levels of SRSF4 (SRp75)” value is “at lower concentrations than Cpd-1”.
